Read-outs that look alike come from different tables or passages of the source.
How the values were obtained:
albumin = target: T1, albumin (Homo sapiens, UniProt P02768); details: once in the circulation; cited from earlier work
T1 construct: host or cells: endogenous albumin of the bloodstream

Type I diabetes subjects = test: Effect of heating or cooling the injection site on blood glucose after basal insulin (LANTUS) injection (FIG. 19); format: in vivo, human; details: for ΔBG_2H, blood glucose excursion change from control / ΔBG_3H, blood glucose excursion change from control / ΔBG_4H, blood glucose excursion change from control: fasting
Source text: FIG. 19 is a graph showing results of a study of the effect of applying a treatment (cooling or heating) for regulating the absorption of a drug (insulin) on an analyte level (insulin and/or blood glucose level) over time measured in minutes.
The experiment tests the effect of treatment (e.g. cooling and heating) at the injection site on insulin and glucose blood levels during nine hours following long acting, basal insulin (LANTUS) injection. The tested treatments included heating the skin over the injection site to 40° C. and cooling the skin over the injection site to 20° C. Each subject underwent three procedures during three different days including control, heating and cooling in random order, thus each subject served as his/her own control.
Type I diabetes subjects under fasting conditions injected their usual basal insulin dose which is intended to keep their blood glucose level stable. Two hours after injection a stabilization period commenced in which a subject's blood glucose levels was adjusted to a target blood glucose level using IV insulin or IV glucose administration. The starting glucose level was 150 mg/dl±20 mg/dl. […] In the two testing days the heating or cooling elements were attached to the injection site and heating or cooling was started for a period of four hours and no intervention (besides the treatment, i.e. cooling or heating) was performed during this period. The procedure continued for another two hours without intervention. On the control day no intervention or treatment was applied. During the whole procedure blood samples were collected for blood glucose and insulin concentration measurements every 20 minutes. Safety limits of the study were 75 mg/dl as the low limit, and 250 mg/dl as the high limit. If the subject's blood glucose level was below 75 mg/dl, then a 10% glucose solution was given intravenously to increase the subject's blood glucose level. If the subject's blood glucose level was above 250 mg/dl then IV insulin was given to reduce blood glucose level.

[1] = cited from earlier work
diabetes subjects = test: Effect of cooling the injection site on blood glucose after basal insulin (LANTUS) injection (FIG. 20); format: in vivo, human
Procedure: FIG. 20 is a graph showing results of a study of the effect of applying cooling for regulating the absorption of a drug (insulin) on an analyte level (insulin and/or blood glucose level) over time measured in minutes.
The diabetes subjects under fasting conditions injected their usual basal insulin dose (LANTUS) which is intended to keep their blood glucose level stable. […] Cooling commenced at 2 hours and was applied for 3 hours successfully raising he blood glucose level back to 142 mg/dl.

T1 sequence (P02768 25-609): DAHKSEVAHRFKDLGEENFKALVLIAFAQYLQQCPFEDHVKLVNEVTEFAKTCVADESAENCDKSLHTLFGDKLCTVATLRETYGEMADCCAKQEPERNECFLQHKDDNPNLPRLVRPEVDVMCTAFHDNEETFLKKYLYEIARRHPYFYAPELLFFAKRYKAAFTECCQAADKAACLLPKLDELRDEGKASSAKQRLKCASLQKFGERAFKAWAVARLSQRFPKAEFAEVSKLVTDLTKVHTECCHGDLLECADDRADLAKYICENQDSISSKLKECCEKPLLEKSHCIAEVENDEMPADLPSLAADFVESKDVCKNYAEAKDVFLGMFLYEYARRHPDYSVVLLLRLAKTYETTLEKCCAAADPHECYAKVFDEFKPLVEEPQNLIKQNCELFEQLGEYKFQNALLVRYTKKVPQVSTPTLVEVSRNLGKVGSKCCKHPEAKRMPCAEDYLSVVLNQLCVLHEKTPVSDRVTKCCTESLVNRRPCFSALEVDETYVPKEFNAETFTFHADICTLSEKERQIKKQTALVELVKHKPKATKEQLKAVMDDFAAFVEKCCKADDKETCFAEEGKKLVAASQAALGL

insulin detemir
albumin bound (albumin): 98%

insulin glargine [LANTUS]
increase in blood glucose levels (Type I diabetes subjects; applying cooling to the injection site (text b295)): 25 mg/dL | average decrease in blood glucose compared to no treatment at all (Type I diabetes subjects; applying heat to the injection site (text b295)): 40 mg/dL | ΔBG_2H, blood glucose excursion change from control (Type I diabetes subjects; cooling skin over injection site to 20° C., after 2 hours): +30 mg/dl | ΔBG_3H, blood glucose excursion change from control (Type I diabetes subjects; cooling skin over injection site to 20° C., after 3 hours): +42 mg/dl | ΔBG_4H, blood glucose excursion change from control (Type I diabetes subjects; cooling skin over injection site to 20° C., after 4 hours): +50 mg/dl | blood glucose levels over time (FIG. 19) (Type I diabetes subjects; cooling the injection site): increased | increase in blood glucose compared to no intervention (Type I diabetes subjects; cooling the injection site, after 2 hours): about 42 mg/dl | increase in blood glucose compared to no intervention (Type I diabetes subjects; cooling the injection site, after 3 hours): ~59 mg/dL | increase in blood glucose compared to no intervention (Type I diabetes subjects; cooling the injection site, after 4 hours): ~65 mg/dL | ΔBG_2H, blood glucose excursion change from control (Type I diabetes subjects; heating skin over injection site to 40° C., after 2 hours): -29 mg/dL | ΔBG_3H, blood glucose excursion change from control (Type I diabetes subjects; heating skin over injection site to 40° C., after 3 hours): -32 mg/dL | ΔBG_4H, blood glucose excursion change from control (Type I diabetes subjects; heating skin over injection site to 40° C., after 4 hours): -32 mg/dL | blood glucose levels over time (FIG. 19) (Type I diabetes subjects; heating the injection site): decreased | average decrease in blood glucose compared to no intervention (Type I diabetes subjects; heating the injection site, after 2 hours): 15 mg/dL | average decrease in blood glucose compared to no intervention (Type I diabetes subjects; heating the injection site, after 3 hours): 21 mg/dL | average decrease in blood glucose compared to no intervention (Type I diabetes subjects; heating the injection site, after 4 hours): 26 mg/dL | blood glucose levels over time (FIG. 19) (Type I diabetes subjects; no intervention applied to the injection site): stable around the base line | solubility ([1]; neutral pH (pH 7.4)): forms precipitates | solubility ([1]; pH 4): soluble | blood glucose level (diabetes subjects; after cooling applied for 3 hours, commenced at 2 hours): 142 mg/dL | initial blood glucose level (diabetes subjects; at injection, fasting): 143 mg/dL | blood glucose level (diabetes subjects; within 2 hours after injection, before cooling): 94 mg/dL
